Measured values as given in US20100099109A1, “Methods for Analyzing Drug Response” (NODALITY, INC., A DELAWARE CORPORATION, priority 2008, published 2010).
“Also recorded” adds a separate entry of the source. Where two headings read alike, the source gives them in different places.

How the values were obtained:
[1] = system: Mylotarg refractory cell lines; experiment: Mylotarg exposure and modulated signaling in resistant cell lines; assay type: cell-based; settings: exposed for 5-15 minutes
Experimental: (§1) The experimental measurements included forward and side scatter, the use of viability dyes (amine aqua and propidium iodide (PI)), and determination of cell cycle and apoptosis by measuring DNA content with DRAQ5. Additionally, cell cycle progression was measured by determining levels of cyclin B1, phosphorylated histone H3, and phosphorylated CDK-1. All these determinations were made in freshly thawed as well as in cultured cycling cells.
(§2) After incubation with fluorochrome-conjugated antibody panels that recognized: p-H2AX, p-Chk2, p-ATM, p-53, cleaved PARP and cleaved caspase 3, cells were processed for cytometry as described above.
(§3) Experiments were conducted in which cell lines were exposed for 5-15 minutes to growth factors and cytokines, after which cells were fixed, permeabilized and incubated with panels of fluorochrome-conjugated antibody panels that recognized intracellular signaling molecules. After processing, cells were acquired on the cytometer.

[2] = system: Mylotarg sensitive cell lines; experiment: Mylotarg exposure and modulated signaling in sensitive cell lines; assay type: cell-based; settings: exposed for 5-15 minutes
Experimental: as §1, §2, §3

[3] = cited from earlier work
U937 cell line = experiment: Mylotarg/Nocodazole exposure, multiparameter flow cytometry of DNA damage, cell cycle and apoptosis; assay type: cell-based; settings: 24 hours exposure
From the text: ATM activity also phosphorylates Chk2 and p53. […] Cyclin B1 is produced during the G2 phase of the cell cycle and its accumulation drives the cell cycle into M phase. Therefore, low levels of Cyclin B1 mark G1 and S phases, high levels mark G2 phase, and higher levels mark M phase. Histone H3 (S28) becomes phosphorylated in M phase, making p-Histone H3(S28) a useful marker of cells in M phase and not G2. It is also possible to monitor the G2/M phases of the cell cycle by measuring the phosphorylation status of Cdk1, previously known as Cdc2, a cyclin-dependent protein kinase that controls the cell cycle entry from G2 to M phase. An inhibitory phosphorylation on Cdk1 is removed by CDC25C in the M phase transition, allowing G2 cells to be distinguished from M cells based on levels of p-Cdk1. […] Treating cells with the microtubule polymerization inhibitor Nocodazole induces cells cycle arrest in M phase without DNA damage.
as §1, §2

[4] = system: MDR1 drug pump activity in U937 cells; experiment: Functional drug transporter assay (DIOC2(3) efflux); assay type: cell-based; settings: Mylotarg sensitive cell line U937
Experimental: (§4) Determination of transporter functional activity: Transporter activity is measured in subpopulations gated for CD45, CD11b, CD34, CD38, and other surface markers including drug transporters themselves. Fluorescent dyes including calcein-acetoxymethyl ester in the presence or absence of inhibitors cyclosporin or PSC-833 for MDR1, reserpine for BCRP-1 and MK571 or probenecid for MRP-1) are used to evaluate the contribution of each transporter to drug efflux
(§5) Cells are thawed, counted and resuspended at 0.222×10^6/ml in RPMI 10% FBS. This example uses 100,000 cells in 450 microliters aliquoted into 6 columns of a 96 well Deep-Well “Cell Plate”. However, the experimental setup is not limited to using 100,000 cells/condition. KG-1 cells are included as a control since they express functional MDR-1.
(§6) 10× Inhibitor or 10× Mock Solutions are prepared by the following protocols: • 10×PSC-833. Stock Conc=2 mM=2000 uM. 10× Conc=20 uM (1:100). • Combine 25 uL stock with 2475 uL DPBS/0.5% BSA • Note Final Conc DMSO=0.1% • Could likely use a range of PSC-833 Concentrations not limited to 2 uM. • This experiment uses Final Concentration of 2 uM • 10×DMSO buffer (mock) • Combine 25 uL DMSO with 2475 uL DPBS/0.5% BSA […]

[5] = target: T1, MDR1 drug pump activity in KG-1 cells (Homo sapiens, UniProt P08183); experiment: as above; assay type: cell-based; settings: Mylotarg resistant KG-1 cells; co-incubation with inhibitor
T1 construct: KG-1 cells are included as a control since they express functional MDR-1; endogenous in cells; host or cells: KG-1 cells
Experimental: as §4, §5, §6

T1 sequence (P08183 whole entry): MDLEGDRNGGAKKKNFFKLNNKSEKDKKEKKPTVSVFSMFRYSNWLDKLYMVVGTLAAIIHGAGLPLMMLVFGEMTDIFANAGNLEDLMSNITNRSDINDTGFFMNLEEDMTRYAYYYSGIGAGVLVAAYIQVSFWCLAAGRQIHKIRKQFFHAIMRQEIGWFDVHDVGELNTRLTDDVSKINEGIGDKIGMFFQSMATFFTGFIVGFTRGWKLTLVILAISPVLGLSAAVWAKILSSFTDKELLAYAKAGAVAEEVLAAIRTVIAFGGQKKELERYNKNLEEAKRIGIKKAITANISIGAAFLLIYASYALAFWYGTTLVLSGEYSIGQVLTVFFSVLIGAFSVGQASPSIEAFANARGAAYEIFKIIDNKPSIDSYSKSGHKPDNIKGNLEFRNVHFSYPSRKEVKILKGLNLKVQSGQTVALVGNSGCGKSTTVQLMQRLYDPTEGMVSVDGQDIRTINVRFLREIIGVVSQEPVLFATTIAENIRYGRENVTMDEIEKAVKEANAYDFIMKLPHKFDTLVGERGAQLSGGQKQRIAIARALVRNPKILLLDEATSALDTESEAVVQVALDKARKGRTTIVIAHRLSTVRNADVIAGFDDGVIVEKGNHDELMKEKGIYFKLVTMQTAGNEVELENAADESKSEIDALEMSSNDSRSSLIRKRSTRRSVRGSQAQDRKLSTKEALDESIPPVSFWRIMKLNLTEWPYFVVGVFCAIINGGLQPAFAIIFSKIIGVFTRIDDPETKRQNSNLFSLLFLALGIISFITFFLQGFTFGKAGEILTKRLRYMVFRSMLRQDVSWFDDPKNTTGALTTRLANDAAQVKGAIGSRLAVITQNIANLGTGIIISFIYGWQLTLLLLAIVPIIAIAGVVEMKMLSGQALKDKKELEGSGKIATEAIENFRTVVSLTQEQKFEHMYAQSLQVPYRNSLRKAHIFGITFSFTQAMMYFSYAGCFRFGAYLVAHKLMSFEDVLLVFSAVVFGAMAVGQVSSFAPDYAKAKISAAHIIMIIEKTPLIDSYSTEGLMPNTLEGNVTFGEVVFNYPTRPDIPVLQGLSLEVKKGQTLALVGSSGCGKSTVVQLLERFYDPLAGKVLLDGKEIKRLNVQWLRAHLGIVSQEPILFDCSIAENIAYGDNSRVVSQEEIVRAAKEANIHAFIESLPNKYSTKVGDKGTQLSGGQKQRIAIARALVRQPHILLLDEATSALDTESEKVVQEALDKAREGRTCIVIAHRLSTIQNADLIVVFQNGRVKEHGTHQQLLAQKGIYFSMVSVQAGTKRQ

For “SCF: growth factor/cytokine modulator of PI3K, Ras/Raf pathways”, which “SCF-mediated p-Akt, p-Erk, and p-S6” value [1] is on record?
Its value is “increase”.

Which “IL-6 mediated p-Stat1” value [2] does the source give for “IL-6: cytokine modulator of JAK/STAT pathways” here?
The value was “increased”.

Which results are given for Nc1ccn([C@@H]2O[C@H](CO)[C@@H](O)[C@@H]2O)c(=O)n1 [Cytarabine]?
peak plasma concentration ([3]; high dose, 3 g/m2): 2 µM; peak plasma concentration ([3]; standard dose, 100 mg/m2): approximately 40 nM

For COc1cccc2c1C(=O)c1c(O)c3c(c(O)c1C2=O)C[C@@](O)(C(C)=O)C[C@@H]3O[C@H]1C[C@H](N)[C@H](O)[C@H](C)O1 [Daunorubicin], which peak plasma concentration ([3]; 25 mg/m2) is on record?
Its peak plasma concentration is 50 ng/mL.

What about the peak plasma concentration ([3]; 50 mg/m2) of the same compound?
Its peak plasma concentration is 200 ng/mL.

Which “cell cycle arrest (Cyclin B1, p-Histone H3(S28), p-Cdk1)” value (U937 cell line) does the source give for COC(=O)Nc1nc2cc(C(=O)c3cccs3)ccc2[nH]1 [Nocodazole] here?
The value was “arrest in M rather than G2”.

Which “effect on intracellular levels of DIOC2(3)” value [4] does the source give for C/C=C/C[C@@H](C)C(=O)[C@H]1C(=O)N[C@@H](C(C)C)C(=O)N(C)CC(=O)N(C)[C@@H](CC(C)C)C(=O)N[C@@H](C(C)C)C(=O)N(C)[C@@H](CC(C)C)C(=O)N[C@@H](C)C(=O)N[C@H](C)C(=O)N(C)[C@@H](CC(C)C)C(=O)N(C)[C@@H](CC(C)C)C(=O)N(C)[C@@H](C(C)C)C(=O)N1C [PSC-833] here?
Its value is “no effect”.

And the “effect on MDR1 drug pump activity / intracellular levels of DIOC2(3)” value [5]?
The value was “blocked; also recorded: significant increase in intracellular reporter”.

For CCCCCCCCCCCCCC(=O)O[C@@H]1[C@@H](C)[C@@]2(O)[C@@H](C=C(CO)C[C@]3(O)C(=O)C(C)=C[C@@H]23)[C@@H]2C(C)(C)[C@]12OC(C)=O [PMA, phorbol myristic acetate], which “PMA-mediated p-S6” value [1] is on record?
The value was “increase in p-S6”.
